Measured values published in publication PMC12504763, “Antiproliferation, 3D-multicellular spheroid and VEGFR-2 inhibitory properties of spiroindolin-2-ones with phosphonate function” (Scientific Reports, 2025).
Where two headings read alike, the source gives them in different places.

Tests used:
[1] = test system: HCT116 (colon) cancer cell line; experiment: 2D-monolayer antiproliferation (MTT) against HCT116; format: cell-based, human; details: for IC50: Homo sapiens, HCT-116; for SI (selectivity index) HCT116: IC50 of RPE1 normal cell/IC50 of HCT116
[2] = test system: PaCa2 (pancreatic) cancer cell line; experiment: 2D-monolayer antiproliferation (MTT) against PaCa2; format: cell-based, human; details: for 1/(observed property): 1/observed IC50 (μM), PaCa2; for IC50: Homo sapiens, PaCa-2, MTT, 72 h incubation, PaCa2 pancreatic, read-out: IC50, μM ± SEM PaCa2; for SI (selectivity index) PaCa2: IC50 of RPE1 normal cell/IC50 of PaCa2
[3] = test system: MCF7 (breast) cancer cell line; experiment: 2D-monolayer antiproliferation (MTT) against MCF7; format: cell-based, human; details: for IC50: Homo sapiens, MTT, 72 h incubation, MCF7 breast, read-out: IC50, μM ± SEM MCF7; for SI (selectivity index) MCF7: IC50 of RPE1 normal cell/IC50 of MCF7
[4] = test system: A549 (lung) cancer cell line; experiment: 2D-monolayer antiproliferation (MTT) against A549; format: cell-based, human; details: for IC50: Homo sapiens, MTT, 72 h incubation, A549 lung, read-out: IC50, μM ± SEM A549; for SI (selectivity index) A549: IC50 of RPE1 normal cell/IC50 of A549
[5] = test system: RPE1 (normal human immortalized retinal pigment epithelial cell line); experiment: cells; format: cell-based; details: Homo sapiens, RPE-1; MTT, normal RPE1 cell; read-out: IC50, μM ± SEM RPE1
VEGFR-2 [6] = target: T1, VEGFR-2 (Homo sapiens, UniProt P35968); experiment: cell-based; format: cell-based; details: for inhibition at 10 µM: HCT-116, HCT116; for VEGFR-2 pg/mL ± SEM HCT116: at 10 μM, control 317.80 ± 3.5
T1 construct: endogenous in cells; host or cells: HCT116, PaCa2, MCF7 (human cancer cell lines, ATCC origin)

VEGFR-2 [7] = target: T1, VEGFR-2; experiment: cell-based; format: cell-based; details: for inhibition at 10 µM: PaCa-2, PaCa2; for VEGFR-2 pg/mL ± SEM PaCa2: at 10 μM, control 326.80 ± 1.9
VEGFR-2 [8] = target: T1, VEGFR-2; experiment: cell-based; format: cell-based; details: for inhibition at 10 µM: MCF7; for VEGFR-2 pg/mL ± SEM MCF7: at 10 μM, control 258.70 ± 2.3
COX-1 = target: T2, COX-1 (Ovis aries, UniProt P05979); experiment: biochemical; details: 3 replicates, read-out: % Inhibition of COX-1 ± SEM
T2 construct: purchased BioVision incorporated USA K548–100
T2 sequence (P05979 25-600): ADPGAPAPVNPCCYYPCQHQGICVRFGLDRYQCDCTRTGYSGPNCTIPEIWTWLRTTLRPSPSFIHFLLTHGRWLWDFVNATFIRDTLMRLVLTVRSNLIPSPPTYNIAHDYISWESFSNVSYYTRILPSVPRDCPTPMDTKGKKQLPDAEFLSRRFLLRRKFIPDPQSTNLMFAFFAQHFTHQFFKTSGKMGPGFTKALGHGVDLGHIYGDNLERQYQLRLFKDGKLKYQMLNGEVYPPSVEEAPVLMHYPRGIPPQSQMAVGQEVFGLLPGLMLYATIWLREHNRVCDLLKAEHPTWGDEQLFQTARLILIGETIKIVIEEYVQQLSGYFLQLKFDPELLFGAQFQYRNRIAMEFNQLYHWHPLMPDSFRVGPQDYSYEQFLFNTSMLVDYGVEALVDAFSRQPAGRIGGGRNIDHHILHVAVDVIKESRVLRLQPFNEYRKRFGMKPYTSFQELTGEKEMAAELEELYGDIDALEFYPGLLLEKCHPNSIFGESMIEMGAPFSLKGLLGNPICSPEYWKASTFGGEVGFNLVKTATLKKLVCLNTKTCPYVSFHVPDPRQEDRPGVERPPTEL

COX-2 = target: T3, COX-2 (Homo sapiens, UniProt P35354); experiment: biochemical; details: for inhibition at 10 µM: 3 replicates, read-out: % Inhibition of COX-2 ± SEM; for SI (selectivity index, COX-2/COX-1): at 10 μM
T3 construct: purchased BioVision incorporated USA K548–100
T3 sequence (P35354 18-604): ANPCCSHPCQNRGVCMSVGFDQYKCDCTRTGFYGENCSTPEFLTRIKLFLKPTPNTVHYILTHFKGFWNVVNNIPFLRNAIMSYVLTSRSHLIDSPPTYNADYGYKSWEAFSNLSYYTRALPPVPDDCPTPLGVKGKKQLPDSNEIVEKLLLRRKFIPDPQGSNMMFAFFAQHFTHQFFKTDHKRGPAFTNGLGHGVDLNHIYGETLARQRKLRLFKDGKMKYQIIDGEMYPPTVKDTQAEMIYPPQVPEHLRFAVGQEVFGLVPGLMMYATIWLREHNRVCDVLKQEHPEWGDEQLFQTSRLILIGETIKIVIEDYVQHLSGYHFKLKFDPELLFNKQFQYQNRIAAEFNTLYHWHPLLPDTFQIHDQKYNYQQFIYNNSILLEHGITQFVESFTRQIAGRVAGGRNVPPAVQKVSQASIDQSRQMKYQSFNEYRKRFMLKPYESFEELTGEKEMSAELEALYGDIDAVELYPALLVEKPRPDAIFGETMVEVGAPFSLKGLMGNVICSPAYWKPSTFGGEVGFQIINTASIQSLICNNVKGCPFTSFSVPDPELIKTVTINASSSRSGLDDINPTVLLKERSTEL

TNF-α [9] = experiment: TNF-α inhibitory properties (ELISA), HCT116 cell lysate; format: cell-based, human; details: at 10 μM; for TNF-α pg/mL (± SEM) HCT116: control 95.74 ± 0.5
TNF-α [10] = experiment: TNF-α inhibitory properties (ELISA), PaCa2 cell lysate; format: cell-based, human; details: at 10 μM; for TNF-α pg/mL (± SEM) PaCa2: control 111.8 ± 2.0
TNF-α [11] = experiment: TNF-α inhibitory properties (ELISA), MCF7 cell lysate; format: cell-based, human; details: at 10 μM; for TNF-α pg/mL (± SEM) MCF7: control 83.26 ± 1.1
[12] = MTT, 72 h incubation, HCT116 colon, read-out: IC50, μM ± SEM HCT116
[13] = log of observed IC50 (μM), HCT116, read-out: Log(observed property) (converted)

T1 sequence (P35968 20-1356): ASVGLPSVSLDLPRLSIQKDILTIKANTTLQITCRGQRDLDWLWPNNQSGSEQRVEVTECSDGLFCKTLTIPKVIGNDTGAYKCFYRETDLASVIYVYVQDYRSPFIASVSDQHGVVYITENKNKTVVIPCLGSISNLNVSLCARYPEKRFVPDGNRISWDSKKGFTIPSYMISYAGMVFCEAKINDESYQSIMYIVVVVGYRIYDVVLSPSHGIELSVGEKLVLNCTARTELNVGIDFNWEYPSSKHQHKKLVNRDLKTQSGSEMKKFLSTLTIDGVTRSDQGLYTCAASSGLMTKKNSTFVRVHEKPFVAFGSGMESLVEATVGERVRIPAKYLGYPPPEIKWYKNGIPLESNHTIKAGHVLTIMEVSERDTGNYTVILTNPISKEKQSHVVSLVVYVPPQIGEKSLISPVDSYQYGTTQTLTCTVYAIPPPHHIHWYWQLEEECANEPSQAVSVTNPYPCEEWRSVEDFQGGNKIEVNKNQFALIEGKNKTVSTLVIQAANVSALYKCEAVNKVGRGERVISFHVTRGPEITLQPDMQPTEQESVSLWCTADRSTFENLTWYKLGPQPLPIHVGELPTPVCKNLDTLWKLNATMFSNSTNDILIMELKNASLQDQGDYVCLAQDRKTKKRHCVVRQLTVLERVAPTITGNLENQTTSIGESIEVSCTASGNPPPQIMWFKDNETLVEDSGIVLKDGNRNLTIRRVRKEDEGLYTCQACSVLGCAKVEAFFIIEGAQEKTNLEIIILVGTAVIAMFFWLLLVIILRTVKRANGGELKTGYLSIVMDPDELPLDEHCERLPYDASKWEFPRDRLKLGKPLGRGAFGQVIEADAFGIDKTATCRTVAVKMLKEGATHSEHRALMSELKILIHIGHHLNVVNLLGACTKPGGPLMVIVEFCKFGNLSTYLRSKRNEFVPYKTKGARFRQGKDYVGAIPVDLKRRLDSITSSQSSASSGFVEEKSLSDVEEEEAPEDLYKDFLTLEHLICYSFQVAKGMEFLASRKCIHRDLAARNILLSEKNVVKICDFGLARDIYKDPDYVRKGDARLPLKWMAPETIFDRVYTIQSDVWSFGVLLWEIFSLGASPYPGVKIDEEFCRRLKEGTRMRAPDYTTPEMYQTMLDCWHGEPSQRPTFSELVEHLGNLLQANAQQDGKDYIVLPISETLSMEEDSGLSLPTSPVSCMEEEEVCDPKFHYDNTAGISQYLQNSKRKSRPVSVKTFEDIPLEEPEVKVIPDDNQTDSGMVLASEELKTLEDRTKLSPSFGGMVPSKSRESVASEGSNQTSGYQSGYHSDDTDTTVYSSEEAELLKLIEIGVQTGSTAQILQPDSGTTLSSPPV

CCOP(=O)(OCC)N1C/C(=C\c2cccs2)C(=O)C2(C1)C(c1cccs1)CN(C)C21C(=O)Nc2ccccc21 (stereo not drawn) [Compound 17q, Diethyl (E)-[1′-methyl-2,4′′-dioxo-4′-(thiophen-2-yl)-5′′-(thiophen-2-ylmethylene)dispiro[indoline-3,2′-pyrrolidine-3′,3′′-piperidin]-1′′-yl]phosphonate]
IC50 [1, 12]: 11.8 ± 0.4 µM
IC50 [1, 13]: 11.8 µM
SI (selectivity index) HCT116 [1]: 2.3
1/(observed property) [2]: 0.07485
IC50 [2]: 13.4 ± 0.325 µM
SI (selectivity index) PaCa2 [2]: 2.0
IC50 [3]: 9.13 ± 0.314 µM
SI (selectivity index) MCF7 [3]: 3.0
IC50 [4]: 24.51 ± 0.204 µM
SI (selectivity index) A549 [4]: 1.1
IC50 [5]: 27.2 ± 0.813 µM
inhibition at 10 µM (VEGFR-2 [6]): 58.4%
VEGFR-2 pg/mL ± SEM HCT116 (VEGFR-2 [6]): 132.30 ± 0.9 pg/mL
inhibition at 10 µM (VEGFR-2 [7]): 58.5%
VEGFR-2 pg/mL ± SEM PaCa2 (VEGFR-2 [7]): 135.70 ± 1.7 pg/mL
inhibition at 10 µM (VEGFR-2 [8]): 43.7%
VEGFR-2 pg/mL ± SEM MCF7 (VEGFR-2 [8]): 145.70 ± 1.9 pg/mL
inhibition at 10 µM (COX-1): 61.3 ± 1.5%
inhibition at 10 µM (COX-2): 62.1 ± 3.1%
SI (selectivity index, COX-2/COX-1) (COX-2): 0.93
TNF-α % inhibition HCT116 (TNF-α [9]): 12.0%
TNF-α pg/mL (± SEM) HCT116 (TNF-α [9]): 84.26 ± 0.8 pg/mL
TNF-α % inhibition PaCa2 (TNF-α [10]): 17.9%
TNF-α pg/mL (± SEM) PaCa2 (TNF-α [10]): 91.8 ± 2.7 pg/mL
TNF-α % inhibition MCF7 (TNF-α [11]): 3.1%
TNF-α pg/mL (± SEM) MCF7 (TNF-α [11]): 80.67 ± 2.8 pg/mL

CCOP(=O)(OCC)N1C/C(=C\c2cccs2)C(=O)C2(C1)C(c1cccs1)CN(C)C21C(=O)Nc2ccc(F)cc21 (stereo not drawn) [Compound 17r, Diethyl (E)-(5-fluoro-1′-methyl-2,4′′-dioxo-4′-(thiophen-2-yl)-5′′-(thiophen-2-ylmethylene)dispiro[indoline-3,2′-pyrrolidine-3′,3′′-piperidin]-1′′-yl)phosphonate]
IC50 [1, 12]: 7.67 ± 0.379 µM
IC50 [1, 13]: 7.67 µM
SI (selectivity index) HCT116 [1]: 2.2
1/(observed property) [2]: 0.1206
IC50 [2]: 8.29 ± 0.497 µM
SI (selectivity index) PaCa2 [2]: 2.1
IC50 [3]: 6.22 ± 0.082 µM
SI (selectivity index) MCF7 [3]: 2.7
IC50 [4]: 14.18 ± 0.135 µM
SI (selectivity index) A549 [4]: 1.2
IC50 [5]: 17 ± 0.557 µM
inhibition at 10 µM (VEGFR-2 [6]): 78.8%
VEGFR-2 pg/mL ± SEM HCT116 (VEGFR-2 [6]): 67.34 ± 0.4 pg/mL
inhibition at 10 µM (VEGFR-2 [7]): 79.6%
VEGFR-2 pg/mL ± SEM PaCa2 (VEGFR-2 [7]): 66.53 ± 0.8 pg/mL
inhibition at 10 µM (VEGFR-2 [8]): 67.4%
VEGFR-2 pg/mL ± SEM MCF7 (VEGFR-2 [8]): 84.30 ± 1.0 pg/mL
inhibition at 10 µM (COX-1): 55.5 ± 2.6%
inhibition at 10 µM (COX-2): 51.8 ± 2%
SI (selectivity index, COX-2/COX-1) (COX-2): 1.09
TNF-α pg/mL (± SEM) HCT116 (TNF-α [9]): 27.45 ± 1.4 pg/mL
TNF-α % inhibition PaCa2 (TNF-α [10]): 75.4%
TNF-α pg/mL (± SEM) PaCa2 (TNF-α [10]): 27.5 ± 0.5 pg/mL
TNF-α % inhibition MCF7 (TNF-α [11]): 69.4%
TNF-α pg/mL (± SEM) MCF7 (TNF-α [11]): 25.46 ± 0.9 pg/mL
